The values below come from patent US20230382915A1, “GCN2 AND PERK KINASE INHIBITORS AND METHODS OF USE THEREOF” (Deciphera Pharmaceuticals, LLC, priority 2021, published 2023).

The structures appear in SMILES notation. Some results are limits rather than exact numbers.

What all share (assay type): cell-based
In assay [1] the test system is ATF4 in HCT116 colorectal cancer cells. Nature of the assay: HCT116 amino acid starved (-AA) ATF4 Western blot. Particulars: Homo sapiens, HCT-116, 4 h. The procedure: HCT116 colorectal cancer cells (catalog #CCL-247) were obtained from the American Type Culture Collect (ATTC, Manassas, VA). Briefly, cells were grown in RPMI 1640 supplemented with 10% heat inactivated fetal bovine serum (Invitrogen, Carlsbad, CA) and 1% Penicillin/Streptomycin/L-Glutamine at 37° C., 5% CO2, and 95% humidity. Cells were expanded until reaching 70-95% confluency at which point they were subcultured or harvested for assay use. Cells were seeded in 12-well culture plate at five hundred thousand cells per well in 1 mL complete growth medium and incubated overnight at 37° C., 5% CO2, and 95% humidity. The next day each well was replaced with 1 mL Earle's Balanced Salt Solution (EBSS, Invitrogen, Carlsbad, CA) supplemented with 10% Dialyzed Fetal Bovine Serum, 5.5 mM Glucose, 1% Penicillin/Streptomycin and 1% Vitamin solution (thermo #11120052). A serial dilution of test compound was dispensed into well. Plates were incubated for 4 h at 37° C., 5% CO2, and 95% humidity. […] Western blot was performed on each lysate to quantify phospho-GCN2 (Thr899), total GCN2, ATF4 and beta-Actin. […] Data were analyzed using GraphPad Prism software (GraphPad, San Diego, CA) to calculate IC50 values.

In assay [2] the test system is GA-10 Burkitt lymphoma cells. Nature of the assay: Cell proliferation, combination with standard of care, GA-10. Particulars: Homo sapiens, with 50 nM dexamethasone, 96 h, FIG. 6C, read-out: inhibition of cell proliferation IC50, combination treatment. The procedure: H929, RPMI8226, GA-10 and DoHH-2 cells (catalog #CRL-9068) were obtained from the American Type Culture Collection (ATTC, Manassas, VA). H929 Cells were maintained in RPMI-1640 medium supplemented with 20% heat-inactivated fetal bovine serum (catalog #A3840002, ThermoFisher Scientific, Waltham, MA), 1% Penicillin/Streptomycin/L-Glutamine (catalog #10378016, ThermoFisher Scientific, Waltham, MA), and 0.05 mM 2-mercaptoethanol (catalog #21985-023, ThermoFisher Scientific, Waltham, MA). […]
For cell proliferation assay appropriate number of cells (Forty thousand cells for H929. Twenty thousand cells for RPMI8226 and GA-10. Eight thousand cells for DoHH-2) were seeded per well in 200 μL in respective medium were dispensed into a 96-well black clear bottom plate. […] Plates were read on a Synergy2 or equivalent reader (Biotek, Winooski VT) using an excitation of 540 nm and an emission of 600 nm. At the end of the incubation of DoHH-2, cell viability was determined using CellTiter-Glo® assay (Promega, Madison, WI). Luminescence was measured using EnVision MultiLabel Reader (PerkinElmer, Waltham, MA). Data was analyzed using GraphPad Prism software (GraphPad, San Diego, CA) to calculate IC50 values.

The test system of assay [3] is HT-1080 spheroids. Nature of the assay: Spheroid Western blot assay, HT-1080. The procedure:
NSCLC cell lines H358 (catalog #CRL-5807) and H2030 (catalog #CRL-5914), and fibrosarcoma cell line HT-1080 (catalog […]) were obtained from the American Type Culture Collect (ATTC, Manassas, VA). Cells were grown in RPMI-1640 medium supplemented with 10% heat-inactivated fetal bovine serum and 1% Penicillin/Streptomycin/L-Glutamine (Invitrogen, Carlsbad, CA) at 37° C., 5% CO2, and 95% humidity and maintained at 50-80% confluency until use. Cells were plated at 500,000 cells/well in 24-well Elplasia plates (Corning, Glendale, AZ) with complete growth media at 1 mL/well and incubated overnight at 37° C., 5% CO2, and 95% humidity to form spheroids. The next day, serial dilutions of test compounds were prepared in complete growth media and 500 μL existing media was removed from each well and replaced with fresh media containing compound titers. Spheroids were then incubated with test compounds for 4 hours or 24 hours under the same conditions. […] Western blots were performed to quantify phospho-GCN2 (R&D Systems, Minneapolis, MN), ATF4, CHOP, cleaved PARP, cleaved Caspase 3 and 7, and beta-Actin (Cell Signaling Technology, Danvers, MA). […]
In general terms: A western blot detects proteins with antibodies after separation by electrophoresis.

With `Cn1cc(-c2cccc(NS(=O)(=O)c3cc(Cl)cc(CO)c3Cl)c2F)c2c(N)ncnc21` [Example 2, N-(3-(4-amino-7-methyl-7H-pyrrolo[2,3-d]pyrimidin-5-yl)-2-fluorophenyl)-2,5-dichloro-3-(hydroxymethyl)benzenesulfonamide], the IC50 in assay [1] is at most 100 nM; in assay [2], 4 nM. Also, the “upregulation of ATF4 (Western blot quantification)” value in assay [3] is recorded as at most 15 fold.
